{
  "source": "patent US7932382B2",
  "about": "“Conformationally constrained Smac mimetics and the uses thereof” (The Regents of the University of Michigan, priority 2005, dated 2011)",
  "key": {"PC-3 cells": {"tested_on": "PC-3 cells", "test": "Apoptosis by Annexin V-FITC staining in PC-3 cells", "assay_type": "cell-based, human", "settings": "for potentiation of the activity of CDDP in inducing apoptosis: PC-3 cells", "method": "PC-3 cells were treated with CDDP, Smac peptides and mimetics alone or in combination for 42 hours and apoptosis was analyzed by Annexin V-FITC staining. […] Combination of 25 μM CDDP and 10 μM or 25 μM SH-97 induced 29.3%±1.9% and 35.8%±0.4% apoptosis over control cells, respectively (FIG. 10A).\nSimilar experiments were performed with SH-102 (Table 5). PC-3 cells in 6-well plates were treated with SH-102 and CDDP, alone or on combination, for 42 hours. Cells were collected and stained with Annexin V-FITC and propidium iodide. The fluorescence of Annexin V-FITC and propidium iodide of individual cells was analyzed by flow cytometry. […] Combination of 25 μM CDDP and 10 μM SH-102 induced 32% apoptosis over control cells (FIG. 11).\nThe same experiment was performed using TAXOTERE (docetaxel), another cancer chemotherapeutic drug. PC-3 cells in 6-well plates were treated with SH-102 and TAXOTERE, alone or in combination, for 42 hours. Cells were collected and stained with Annexin V-FITC and propidium iodide. The fluorescence of Annexin V-FITC and propidium iodide of individual cells was analyzed by flow cytometry. […] Combination of 10 μM taxotere and 10 μM SH-102 induced about 18% apoptosis over control cells (FIG. 13)."}, "MDA-231 cells": {"tested_on": "MDA-231 cells", "test": "Apoptosis by Annexin V-FITC/propidium iodide flow cytometry in MDA-231 cells", "assay_type": "cell-based, human", "settings": "for cells undergoing apoptosis as compared to control cells: 42 hours; for potentiation of the activity of CDDP in inducing apoptosis: MDA-231 cells", "method": "Similar experiments were performed using the breast cancer cell line MDA-231. MDA-231 cells in 6-well plates were treated with SH-102 and CDDP, alone or on combination, for 42 hours. Cells were collected and stained with Annexin V-FITC and propidium iodide. The fluorescence of Annexin V-FITC and propidium iodide of individual cells was analyzed by flow cytometry. 25 μM and 50 μM CDDP induced about 25% and 42% of MDA-231 cells to undergo apoptosis as compared to control cells, respectively (FIG. 14). […] Combination of 25 and 50 μM CDDP and 10 μM SH-102 induced about 35% and 75% apoptosis over control cells, respectively (FIG. 14)."}, "[1]": {"biological_target": "T1, human XIAP-BIR3 protein (residues 241-356) (Homo sapiens, UniProt P98170)", "T1 sequence (P98170 241-356)": "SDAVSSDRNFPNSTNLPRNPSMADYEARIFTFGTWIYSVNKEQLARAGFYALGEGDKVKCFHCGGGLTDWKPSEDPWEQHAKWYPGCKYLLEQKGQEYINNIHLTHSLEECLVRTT", "test": "biochemical"}, "[2]": {"biological_target": "T1, human XIAP-BIR3 protein (residues 241-356)", "test": "Fluorescence polarization saturation (direct) binding of labeled Smac peptides", "set-up": "The human XIAP-BIR3 protein (residues 241-356) with a His tag", "settings": "5 nM labeled peptide titrated with 0 to 40 μM protein; read-out: Kd value (dissociation constant to XIAP-BIR3)"}, "[3]": {"tested_on": "MDA-435, MDA468, and T47D cells", "test": "Cell growth inhibition (WST-8) in breast cancer cell lines", "assay_type": "cell-based, human", "settings": "all three cell lines, 5 days", "method": "To test the effect of Smac mimetics by themselves in inhibition of cell growth in human cancer cells, SH-102 was administered to three different breast cancer cell lines. MDA-435, MDA468, and T47D cells were seeded in 96-well plates with increasing concentrations of SH-102, Smac8, or Smac8-C. The cells were then incubated at 37° C. with 5% CO2 for 5 days, followed by detection of cell viability with WST-8. Untreated cells were used as 100% growth. […]. […] (FIGS. 18A-18C)."}, "XIAP": {"biological_target": "XIAP (Homo sapiens, UniProt P98170)", "sequence (P98170 whole entry)": "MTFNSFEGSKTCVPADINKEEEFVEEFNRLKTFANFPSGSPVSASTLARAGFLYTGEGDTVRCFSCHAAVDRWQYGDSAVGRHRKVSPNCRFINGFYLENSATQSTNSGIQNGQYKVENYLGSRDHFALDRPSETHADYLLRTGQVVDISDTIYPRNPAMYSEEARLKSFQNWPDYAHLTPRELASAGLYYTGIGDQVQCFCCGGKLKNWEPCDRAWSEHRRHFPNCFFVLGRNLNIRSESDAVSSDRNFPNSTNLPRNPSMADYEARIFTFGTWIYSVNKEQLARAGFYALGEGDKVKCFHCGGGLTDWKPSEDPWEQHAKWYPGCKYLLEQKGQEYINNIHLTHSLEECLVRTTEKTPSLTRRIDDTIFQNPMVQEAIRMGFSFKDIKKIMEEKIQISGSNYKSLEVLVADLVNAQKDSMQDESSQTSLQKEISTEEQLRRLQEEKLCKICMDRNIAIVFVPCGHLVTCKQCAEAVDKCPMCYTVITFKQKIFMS", "settings": "cited from earlier work"}},
  "note": "Where a SMILES comes first, the peptide text is derived from it. [ ]: non-standard residue; d: D form. The star is where a group is joined. 6FAM = O=C1OC2(c3ccc(O)cc3Oc3cc(O)ccc32)c2cc(C(=O)*)ccc21; Abu = CC[C@H](N)C(=O)O",
  "data": [
    {"molecule": "[NH2][Pt]([NH2])([Cl])[Cl]", "note": "[CDDP, cisplatin]", "values": [
      {"measurement": "cancer cells undergoing apoptosis as compared to control cells", "setting": "PC-3 cells; 50 μM CDDP alone, 42 hours", "value": "~25", "unit": "%"},
      {"measurement": "cells undergoing apoptosis as compared to control cells", "setting": "MDA-231 cells; 25 μM CDDP alone", "value": "about 25%"},
      {"measurement": "cells undergoing apoptosis as compared to control cells", "setting": "MDA-231 cells; 50 μM CDDP alone", "value": "~42", "unit": "%"}
    ]},
    {"molecule": "CC[C@H](N)C(=O)N[C@H]1CCC[C@H]2CC[C@@H](C(=O)NC(c3ccccc3)c3ccccc3)N2C1=O", "note": "[Compound 34]", "values": [
      {"measurement": "apoptosis compared to untreated cancer cells", "setting": "PC-3 cells; SH-102 alone up to 100 μM, 42 hours", "value": "did not induce significantly more apoptosis"}
    ]},
    {"molecule": "CCC(CC)CNC(=O)[C@@H]1CC[C@@H]2CC[C@H](NC(=O)[C@H](C)N)C(=O)N21", "note": "[SH-76]", "values": [
      {"measurement": "Ki", "setting": "[1]", "value": "> 200", "unit": "µM"}
    ]},
    {"molecule": "CCC[C@H](N)C(=O)N[C@H]1CC[C@H]2CC[C@@H](C(=O)NCc3ccccc3)N2C1=O", "note": "[SH-93]", "values": [
      {"measurement": "potentiation of the activity of CDDP in inducing apoptosis", "setting": "PC-3 cells", "value": "unable to potentiate"},
      {"measurement": "potentiation of the activity of CDDP in inducing apoptosis", "setting": "MDA-231 cells", "value": "unable to potentiate"}
    ]},
    {"molecule": "CC[C@H](N)C(=O)N[C@@H](CCCNC(=N)N)C(=O)N1CCC[C@H]1C(=O)N[C@@H](Cc1ccccc1)C(=O)N[C@@H](CCCCNC(=O)c1ccc2c(c1)C1(OC2=O)c2ccc(O)cc2Oc2cc(O)ccc21)C(N)=O", "note": "[SM5F, AbuRPFK-FAM] (H-[Abu]RPFK(6FAM)-NH2; N-terminus and C-terminus assumed)", "values": [
      {"measurement": "Kd", "setting": "[2]", "value": 17.9, "unit": "nM"}
    ]},
    {"molecule": "AVPIAQKS [Smac8, Smac peptide without a carrier peptide, negative control]", "values": [
      {"measurement": "potentiation of the activity of CDDP in inducing apoptosis", "setting": "PC-3 cells", "value": "unable to potentiate"},
      {"measurement": "potentiation of the activity of CDDP in inducing apoptosis", "setting": "MDA-231 cells", "value": "unable to potentiate"},
      {"measurement": "inhibition of cell growth (in words)", "setting": "[3]", "value": "essentially ineffective"}
    ]},
    {"molecule": "mature Smac protein: mature Smac/DIABLO protein, endogenous inhibitor of XIAP (protein, UniProt Q9NR28 22-239, looked up) Diablo IAP-binding …: LCVPVVANFKKRCFSELIRPWHKTVTIGFGVTLCAVPIAQKSEPHSLSSEALMRRAVSLVTDSTSTFLSQTTYALIEAITEYTKAVYTLTSLYRQYTSLLGKMNSEEEDEVWQVIIGARAEMTSKHQEYLKLETTWMTAVGLSEMAAEAAYQTGADQASITARNHIQLVKLQVEEVHQLSRKAETKLAEAQIEELRQKTQEEGEERAESEQEAYLRED", "values": [
      {"measurement": "Kd", "setting": "XIAP", "value": 420, "unit": "nM"}
    ]}
  ]
}
